We go through 2 compounds from patent US20070259872A1, “Inhibitors of soluble adenylate cyclase” (priority 2006, published 2007).

Structures are written as SMILES.

The target of this test is soluble, sperm-specific adenylate cyclase (sAC) (Homo sapiens, UniProt Q96PN6). The experiment in a line: sAC-Assay (HTRF cAMP detection). Type of test: biochemical. To be noted: read-out: IC50 (inhibition of the soluble adenylate cyclase). From the text: In a suitable buffer system, the soluble, sperm-specific adenylate cyclase catalyzes the reaction of adenosine triphosphate (ATP) to cyclic adenosine monophosphate (cAMP) and pyrophosphate. Free cAMP that is generated in this way is then used in a competitive detection process, in which the binding of a europium kryptate (Eu[K])-labeled anti-cAMP antibody (anti cAMP-Eu[K]-AK) to a cAMP-molecule-labeled, modified allophycocyanine-1 molecule (cAMP-XL665) is prevented. In the absence of exogenic cAMP, after excitation at 335 nm, it results in a fluorescence resonance energy transfer (FRET) between the anti cAMP-Eu[K]-AK (FRET-donor) and the cAMP-XL665 molecule (FRET-acceptor). This process is quantified at different times (time-resolved) based on the emission of FRET-acceptor XL665 (665 nm and 620 nm). A signal drop (measured as a wave ratio; calculation formula: [(E665 nm/E620 nm)×10000]) can be attributed to the presence of cAMP and thus to the activity of sAC.
First, 1.5 μl of the test substance (in 30% DMSO), only 30% DMSO in the solvent controls, is introduced per recess in a 384-hole test plate (polystyrene; 384, NV). […]
After an additional incubation of 90 minutes at room temperature, the HTRF result is measured either on the Packard Discovery or with the RubiStar HTRF measuring device (Delay: 50 μs; Integration time: 400 μs).
(In general: Time-resolved FRET reads energy transfer from a long-lived donor to a nearby acceptor.)

Broadly, the IC50 is the concentration that inhibits the measured activity by half.

Sequence of soluble, sperm-specific adenylate cyclase (sAC) (Q96PN6 whole entry): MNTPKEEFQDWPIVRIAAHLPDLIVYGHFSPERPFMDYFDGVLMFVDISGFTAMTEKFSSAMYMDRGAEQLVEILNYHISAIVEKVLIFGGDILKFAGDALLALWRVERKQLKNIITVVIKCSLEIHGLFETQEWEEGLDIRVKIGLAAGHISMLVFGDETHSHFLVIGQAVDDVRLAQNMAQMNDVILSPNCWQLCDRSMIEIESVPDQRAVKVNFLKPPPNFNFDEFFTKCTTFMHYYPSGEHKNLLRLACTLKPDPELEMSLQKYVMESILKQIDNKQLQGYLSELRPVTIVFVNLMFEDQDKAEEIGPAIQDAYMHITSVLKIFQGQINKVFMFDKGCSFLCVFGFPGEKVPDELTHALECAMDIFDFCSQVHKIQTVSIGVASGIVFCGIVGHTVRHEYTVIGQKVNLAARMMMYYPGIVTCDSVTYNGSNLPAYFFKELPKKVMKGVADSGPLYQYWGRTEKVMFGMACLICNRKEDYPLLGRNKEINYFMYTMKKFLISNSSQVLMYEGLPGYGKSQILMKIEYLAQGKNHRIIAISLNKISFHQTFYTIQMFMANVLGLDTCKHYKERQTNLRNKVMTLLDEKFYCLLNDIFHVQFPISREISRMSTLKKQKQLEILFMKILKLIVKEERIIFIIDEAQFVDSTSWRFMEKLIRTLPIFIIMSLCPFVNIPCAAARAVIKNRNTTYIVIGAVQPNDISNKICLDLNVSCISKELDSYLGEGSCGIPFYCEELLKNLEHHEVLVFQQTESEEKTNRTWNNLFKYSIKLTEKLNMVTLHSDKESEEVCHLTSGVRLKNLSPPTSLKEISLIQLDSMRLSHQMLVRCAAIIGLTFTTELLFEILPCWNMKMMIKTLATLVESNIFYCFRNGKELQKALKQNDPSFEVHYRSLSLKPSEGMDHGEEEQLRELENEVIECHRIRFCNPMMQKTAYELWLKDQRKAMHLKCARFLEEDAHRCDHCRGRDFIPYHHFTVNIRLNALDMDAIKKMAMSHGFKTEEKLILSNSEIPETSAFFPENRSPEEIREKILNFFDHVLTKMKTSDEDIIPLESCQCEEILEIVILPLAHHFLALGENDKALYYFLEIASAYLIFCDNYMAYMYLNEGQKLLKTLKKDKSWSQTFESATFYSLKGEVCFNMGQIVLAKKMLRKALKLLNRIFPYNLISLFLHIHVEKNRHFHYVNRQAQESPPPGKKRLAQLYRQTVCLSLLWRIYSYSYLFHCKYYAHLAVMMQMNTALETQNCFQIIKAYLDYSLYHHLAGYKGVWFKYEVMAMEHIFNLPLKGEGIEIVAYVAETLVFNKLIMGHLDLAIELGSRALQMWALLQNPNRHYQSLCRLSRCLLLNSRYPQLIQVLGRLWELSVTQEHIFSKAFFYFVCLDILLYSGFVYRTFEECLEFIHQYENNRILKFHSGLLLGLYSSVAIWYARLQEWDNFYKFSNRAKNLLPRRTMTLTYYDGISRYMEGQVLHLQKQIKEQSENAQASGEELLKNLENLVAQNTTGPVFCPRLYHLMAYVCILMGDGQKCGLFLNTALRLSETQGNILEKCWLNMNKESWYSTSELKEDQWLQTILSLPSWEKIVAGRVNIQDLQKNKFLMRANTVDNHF

For `CC(C)(C)c1ccc(NS(=O)(=O)c2ccc3[nH]c(C(=O)NC4CCOCC4)c(-c4ccccc4)c3c2)cc1`, the IC50 came to 3000 nM. Under `CC(O)CNC(=O)c1[nH]c2ccc(S(=O)(=O)Nc3ccc(C(C)(C)C)cc3)cc2c1-c1ccccc1` (racemic) stands 1600 nM.
